# Results reported in ChEMBL document CHEMBL6074624, “FDA-approved small molecule kinase inhibitors for cancer treatment (2001-2015): Medical indication, structural optimization, and binding mode Part I” (Bioorg Med Chem, 2024).
# Assays:
# [1] = target: Fibroblast growth factor receptor 1 (Homo sapiens, UniProt P11362); experiment: Inhibition of FGFR1 (unknown origin)
# [2] = system: A549; experiment: cells; details: Homo sapiens, A549, 72 h
# [3] = system: NCI-H1975; experiment: Antitumor activity against human NCI-H1975 cells xenografted in female nude mouse assessed as tumor growth inhibition at 20 mg/kg, po adminstered once daily for 25 days relative to control; format: functional; details: NCI-H1975, 600 h, time 25 day, read-out: TGI
# [4] = system: MDA-MB-231; experiment: Antitumor activity against human MDA-MB-231 cells xenografted in athymic nude mouse assessed as tumor growth inhibition at 20 mg/kg, po administered once daily for 11 days relative to control; format: functional; details: MDA-MB-231, 264 h, time 11 day, read-out: TGI
# [5] = system: KARPAS-299; experiment: cells; details: Homo sapiens, KARPAS-299, 24 h
# [6] = system: Ramos; experiment: cells; details: Homo sapiens
# [7] = system: Jurkat; experiment: cells; details: Homo sapiens
# [8] = system: A549; experiment: Antitumor activity against human A549 cells harboring KRAS G12S mutant xenografted in athymic nude mouse assessed as tumor growth inhibition at 5 mg/kg, po administered once daily for 21 days relative to control; format: functional; details: A549, 504 h, time 21 day, read-out: TGI
# [9] = system: HT-29; experiment: Antiproliferative activity against human HT-29 cells assessed as reduction in cell viability after 72 hrs by MTS assay; format: functional, cell-based; details: HT-29, 72 h
# [10] = Solubility of compound in PBS at pH 7.4; format: physicochemical
# [11] = Permeability of compound in human Caco-2 cells […]; format: ADME, cell-based; details: read-out: permeability
# [12] = system: A549; experiment: Antitumor activity against human A549 cells harboring KRAS G12S mutant xenografted in athymic nude mouse assessed as tumor growth inhibition at 0.1 mg/kg, po administered once daily for 21 days relative to control; format: functional; details: A549, 504 h, time 21 day, read-out: TGI
# [13] = system: ACHN; experiment: Antiproliferative activity against human ACHN cells assessed as reduction in cell viability measured after 48 hrs by SRB assay; format: functional, cell-based
# [14] = Oral bioavailability in human; format: ADME, organism-based; details: in vivo
# [15] = system: A549; experiment: Antitumor activity against human A549 cells harboring KRAS G12S mutant xenografted in athymic nude mouse assessed as tumor growth inhibition at […], po administered once daily for 21 days relative to control; format: functional; details: A549, 504 h, dose 2.5 mg/kg, time 21 day, read-out: TGI
# [16] = AUC in human; format: ADME
# [17] = system: A549; experiment: Antitumor activity against human A549 cells harboring KRAS G12S mutant xenografted in athymic nude mouse assessed as tumor growth inhibition at 0.5 mg/kg, po administered once daily for 21 days relative to control; format: functional; details: A549, 504 h, time 21 day, read-out: TGI
# [18] = Cytotoxicity against HUVEC cells assessed as reduction in cell viability after 72 hrs by CellTiter-Glo assay; format: toxicity, cell-based; details: human
# [19] = AUC (0 to infinity) in mouse at 50 mg/kg, po; format: ADME, organism-based; details: in vivo
# [20] = Toxicity in ICR mouse assessed as maximal tolerated dose measured for 7 days; details: in vivo, time 7 day
# [21] = Clearance in Sprague-Dawley rat at 5 mg/kg, po; format: ADME, organism-based; details: in vivo
# [22] = system: MDA-MB-231; experiment: Antitumor activity against human MDA-MB-231 cells xenografted in nu/nu CD-1 mouse assessed as reduction in tumor growth at 3 mg/kg, po administered once daily for 14 days relative to control; format: functional; details: MDA-MB-231, 336 h, time 14 day, read-out: TGI
# [23] = system: 786-0; experiment: Antitumor activity against human 786-0 cells xenografted in nu/nu CD-1 mouse assessed as reduction in tumor growth at 10 mg/kg, po administered once daily for 21 days relative to control; format: functional; details: 786-0, 504 h, time 21 day, read-out: TGI
# [24] = system: COLO 205; experiment: Antitumor activity against human COLO 205 cells xenografted in nu/nu CD-1 mouse assessed as reduction in tumor growth at 100 mg/kg, po administered once daily for 14 days relative to control; format: functional; details: COLO 205, 336 h, time 14 day, read-out: TGI
# Sequence of Fibroblast growth factor receptor 1 (P11362 whole entry): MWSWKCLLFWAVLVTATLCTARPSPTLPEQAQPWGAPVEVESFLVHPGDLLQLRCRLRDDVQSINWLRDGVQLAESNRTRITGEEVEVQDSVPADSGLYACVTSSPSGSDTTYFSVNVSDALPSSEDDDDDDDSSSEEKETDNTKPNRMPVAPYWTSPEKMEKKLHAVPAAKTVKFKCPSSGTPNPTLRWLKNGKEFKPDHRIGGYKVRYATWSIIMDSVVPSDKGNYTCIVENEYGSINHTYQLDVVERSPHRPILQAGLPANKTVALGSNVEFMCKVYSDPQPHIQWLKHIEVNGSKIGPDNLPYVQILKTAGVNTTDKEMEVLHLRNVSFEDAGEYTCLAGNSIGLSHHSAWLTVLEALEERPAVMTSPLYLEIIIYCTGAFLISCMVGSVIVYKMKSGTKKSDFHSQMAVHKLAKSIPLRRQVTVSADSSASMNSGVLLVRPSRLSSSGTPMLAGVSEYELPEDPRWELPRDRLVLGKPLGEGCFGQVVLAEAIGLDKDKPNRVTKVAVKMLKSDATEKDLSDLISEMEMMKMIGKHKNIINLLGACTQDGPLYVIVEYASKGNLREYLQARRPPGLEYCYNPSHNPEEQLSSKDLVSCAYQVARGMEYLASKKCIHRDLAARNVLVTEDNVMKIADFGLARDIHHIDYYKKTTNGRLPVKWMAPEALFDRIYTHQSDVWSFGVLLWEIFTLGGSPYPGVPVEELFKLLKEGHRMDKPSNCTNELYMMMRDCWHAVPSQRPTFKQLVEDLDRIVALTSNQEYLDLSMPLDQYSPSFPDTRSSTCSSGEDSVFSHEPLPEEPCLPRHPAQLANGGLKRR
smiles,measurement,setting,value
COc1cc(/C=C/c2n[nH]c3ccccc23)ccc1O,IC50,[1],1.9 µM
CC(Oc1cc(-c2cnn(C3CCNCC3)c2)cnc1N)c1c(Cl)ccc(F)c1Cl (centres undefined),IC50,[2],0.02 µM
CN(C)C/C=C/C(=O)Nc1cc2c(Nc3ccc(F)c(Cl)c3)ncnc2cc1O[C@H]1CCOC1 [AFATINIB],inhibition in vivo at 20 mg/kg,[3],12%
CCc1cc2c(cc1N1CCC(N3CCOCC3)CC1)C(C)(C)c1[nH]c3cc(C#N)ccc3c1C2=O [ALECTINIB],inhibition in vivo at 20 mg/kg,[4],119%
same,IC50,[5],0.0128 µM
C=CC(=O)N1CCC[C@@H](n2nc(-c3ccc(Oc4ccccc4)cc3)c3c(N)ncnc32)C1 [IBRUTINIB],IC50,[6],0.04 µM
same,IC50,[7],0.47 µM
CC(=O)Nc1cccc(-n2c(=O)n(C3CC3)c(=O)c3c(Nc4ccc(I)cc4F)n(C)c(=O)c(C)c32)c1 [TRAMETINIB],inhibition in vivo at 5 mg/kg,[8],92%
same,IC50,[9],0.00057 µM
same,solubility,[10],5.3 µM
same,Papp,[11],26 ×10⁻⁶ cm/s
same,inhibition in vivo at 0.1 mg/kg,[12],58%
same,IC50,[13],0.0098 µM
same,bioavailability,[14],30%
same,inhibition in vivo at […],[15],87%
same,AUC,[16],88.3 µM·h
same,inhibition in vivo at 0.5 mg/kg,[17],62%
COc1cc(-c2ccc3[nH]nc(/C=C/c4ccc(OC)c(OC)c4)c3c2)ccc1O,IC50 at 72 h,[18],0.018 µM
same,AUC(0-inf),[19],300 ng·h/mL
O=C(NOC[C@H](O)CO)c1ccc(F)c(F)c1Nc1ccc(I)cc1F [MIRDAMETINIB],MTD at 168 h,[20],25 mg/kg
O=C(c1ccc(F)c(F)c1Nc1ccc(I)cc1F)N1CC(O)C1,CL,[21],8.324 mL/min/kg
CNC(=O)c1cc(Oc2ccc(NC(=O)Nc3ccc(Cl)c(C(F)(F)F)c3)c(F)c2)ccn1 [REGORAFENIB],inhibition in vivo at 3 mg/kg,[22],81%
same,inhibition in vivo at 10 mg/kg,[23],> 90%
same,inhibition in vivo at 100 mg/kg,[24],75%
